“Also recorded” adds a separate entry of the source. Residues, ends and D or L forms follow the SMILES beside them. No end group written: not given here.
Tests used:
mouse acinar cells = assay: Total cholesterol content of mouse acinar cells (ex vivo pancreatitis models or cholesterol chelator); type: cell-based; parameters: total cholesterol in acinar cells, physiologic doses: dose or concentration left out as unconfirmed
Description: (§1) FIGS. 8A-8M show derangement of cholesterol metabolism in experimental pancreatitis. Characteristics of cholesterol metabolism were measured, as detailed in FIGS. 4A-4R, in pancreas of WT mice subjected to pancreatitis induced with cerulein (CER-AP), L-arginine (Arg-AP), or CDE diet (CDE-AP) (A, B, and E-G); ex vivo pancreatitis induced in WT mouse (C and I-M) or human acinar cells (D) with 100 nM CCK (CCK-AP) or 1 mM carbachol; and isolated pancreatic mitochondria (H). (B) Cholesterol ester (CE) heatmap; each column represents an individual mouse. (F) IB analysis of the indicated proteins. (G) LAL activity was measured by a fluorogenic assay (n=6 mice per condition). (H) Cholesterol content was measured by enzymatic assay. (I-M) Filipin colocalization with indicated proteins was quantified as detailed in FIGS. 2A-2L. Each symbol in A, C-E, and H represents an individual mouse, or cell or mitochondria preparation (n=3-15 per condition). Each symbol in J, K, and M corresponds to 20-30 cells in a different field (n=10-20 fields from 3 cell preparations per condition). Values are mean±SEM. *P<0.05, **P<0.01, ***P<0.001 vs. the same parameter in control/untreated pancreas, acinar cells or isolated mitochondria. Significance was determined by 2-tailed Student's t test (B, E, H, J, K, and M) or 1-way ANOVA followed by Tukey's multiple comparison test (A, C, and D). Scale bars: 10 μm.
(§2) Parameters of cholesterol metabolism were measured in (A, B, E, F) pancreas of mice subjected to pancreatitis induced with cerulean (CER-AP), L-arginine (Arg-AP), or combination of EtOH+palmitoleic acid (EtOH+POA); and (C) ex-vivo models on mouse and human acinar cells treated for 1 h with 100 nM CCK, […] or 500 μM TLCS. In (A), each column in CE heatmap represents an individual mouse. (B, C) Total cholesterol content was measured with cholesterol assay kit (Abcam, ab65390). […] Each symbol corresponds to 20-30 cells in each of 8 high-expression (qPCR) of proteins regulating cholesterol synthesis (4 mice/group). (B-D) Each symbol represents an individual animal or cell preparation. (A-D, F) Values are mean±SE (*p<0.05, **p<0.01, ***p<0.001 vs saline or control). Signficance was determined by 2-tailed student's t test.
(§3) Ex vivo pancreatitis models were performed on mouse and human acinar cells, and human pancreas slices by incubation with supramaximal CCK (100 nM) or carbachol (1 mM), as described previously (80, 81).
(§4) Total cholesterol content was measured with Cholesterol Assay kit per manufacturer's instructions. Samples of mouse pancreas and liver, cell pellet homogenates, subcellular fractions, isolated mitochondria, and serum were diluted in the reaction buffer containing cholesterol probe and incubated at 37° C. for 1 h in the dark. To measure total cholesterol, the samples were subjected to digestion with cholesterol esterase. To measure non-esterified cholesterol, the esterase was omitted from the assay.
Fluorescence intensity (for cholesterol) and absorbance (for TAG) were measured in a Tecan microplate reader. Each measurement was in duplicate, and the values were normalized per mg total protein in the sample.

human acinar cells = assay: Total cholesterol content of human acinar cells (ex vivo pancreatitis models); type: cell-based
Description: as §1, §2, §3
Human pancreas slices were obtained as in (12), from portions of live normal human pancreata from pre-terminal donors that were not used for transplantation and diverted to research (provided by Trillium Gift of Life Network, Toronto, Ontario, year 2020) or from normal portions of pancreatic cancer operations. Pancreas was cut into ~3×3×3 mm pieces and embedded with 37° C. low melting 3.8% agarose gel in extracellular solution containing (mM): 125 NaCl, 2.5 KCl, 1 MgCl2, 2 CaCl2, 1.25 NaH2PO4, 26 NaHCO3, 2 sodium pyruvate, 0.25 ascorbic acid, 3 myo-inositol, 6 lactic acid, and 7 glucose, and placed on ice to solidify the gel. The gelled tissue blocks were sliced with Vibratome into 120 μm-thick slices; slices were washed with the same extracellular solution, placed in 199 medium containing 0.1 mg/mL soybean trypsin inhibitor, and treated with CCK-8 (CCK) or carbachol for ex-vivo pancreatitis.
(§5) Total cholesterol content was measured with Cholesterol Assay kit per manufacturer's instructions. […]

free cholesterol = assay: Filipin colocalization with organelle markers in ex vivo CCK-AP; type: cell-based, mouse; details: 100 nM CCK
Description: as §1, with “Each symbol in A, C-E, and H represents an individual mouse, or cell or mitochondria preparation (n=3-15 per condition). Each symbol in J, K, and M corresponds to 20-30 cells in a different field (n=10-20 fields from 3 cell preparations per condition). Values are mean±SEM. *P<0.05, **P<0.01, ***P<0.001 vs. the same parameter in control/untreated pancreas, acinar cells or isolated mitochondria.” left out, “Scale bars: 10 μm.” left out
All fluorescence images were acquired with a Zeiss LSM710 confocal microscope using x63 objective and preset within-experiment image acquisition settings. Quantitative fluorescence analysis was performed with Volocity software (PerkinElmer). Overlap between 2 fluorescent labels was measured using Manders-Costes coefficient. […]

[1] = Serum cholesterol in cerulein pancreatitis; type: in vivo, mouse; details: CER-AP
Description: (§6) Cerulein-induced (CER-AP) and L-arginine induced (Arg-AP) acute pancreatitis models were performed in 12-week-old C57BL/6 mice that received 7 hourly i.p. injections of 50 μg/kg cerulein or 3 hourly i.p. injections of 3.3 g/kg Arg; controls received physiologic saline injections. Mice were euthanized for analyses 7 hours after the first cerulein or 24 hours after the first Arg injection. Choline deficient, ethionine-supplemented (CDE) pancreatitis was induced in young (~5-weeks old) female mice fed either CDE or control diet. Mice were euthanized 72 hours after the diet initiation. These models have been described in detail (1-7).
as §4

pancreas [2] = assay: Pancreatic mRNA expression and protein levels (qPCR, IB) in cerulein pancreatitis; type: in vivo, mouse
Description: as §1
FIGS. 9A-9E show cerulein pancreatitis decreases pancreatic levels of GNPTAB and mediators of cholesterol trafficking through LE/Ly. (A, D, and E) IB analysis of the indicated proteins in pancreas of WT mice subjected to CER-AP and in Gnptab^−/− mice. NS, nonspecific band. (B and C) Cholesterol content was measured in pancreas of (B) WT mice that received daily i.p. injections of the NPC1 inhibitor U18666A (10 mg/kg) or vehicle for 15 days and (C) Lamp2^−/− mice. Each symbol in B, C, and E represents an individual mouse. Values are mean±SEM from 3 to 5 mice per condition. ***P<0.001 vs. the same parameter in WT control/untreated or saline-treated mice. Significance was determined by 2-tailed Student's t test (B and C) or 1-way ANOVA followed by Tukey's multiple comparison test (E).
as §6
Immunoblots were developed using enhanced chemiluminescence detection kit (Pierce), and band intensities were quantified by densitometry using FluorChem HD2 imaging system (Alpha Innotech/ProteinSimple).
qPCR. Total RNA was isolated from tissue or cells using QIAGEN RNeasy Plus kit according to the manufacturer's instructions, quantified in NanoDrop, and converted to cDNA with high-capacity cDNA reverse transcription kit. KAPA SYBR FAST qPCR Master Mix kit and a LightCycler 480 were used for quantitative PCR. Fold change related to the control group was calculated using the 2ΔΔCt method with Rplp0/36B4 as the reference gene. Primers are available upon request.

pancreatic mitochondria = assay: Cholesterol content of isolated pancreatic mitochondria in cerulein pancreatitis; type: in vivo, mouse; details: WT mice with CER-AP
Description: as §1, with “Each symbol in A, C-E, and H represents an individual mouse, or cell or mitochondria preparation (n=3-15 per condition). Each symbol in J, K, and M corresponds to 20-30 cells in a different field (n=10-20 fields from 3 cell preparations per condition). Values are mean±SEM. *P<0.05, **P<0.01, ***P<0.001 vs. the same parameter in control/untreated pancreas, acinar cells or isolated mitochondria.” left out, “Scale bars: 10 μm.” left out
Mitochondria were isolated from mouse pancreas and liver in a Ca2+-free medium in the presence of 1 mM EGTA, as in (3-5,13). The value of respiratory control ratio in these preparations, measured in the presence of succinate (quality control parameter), was greater than 3.0.
as §5

pancreas [3] = assay: Pancreatic total cholesterol and lipids in acute pancreatitis models in WT mice; type: in vivo, mouse
Description: as §1
Parameters of cholesterol metabolism were measured in (A, B, E, F) pancreas of mice subjected to pancreatitis induced with cerulean (CER-AP), L-arginine (Arg-AP), or combination of EtOH+palmitoleic acid (EtOH+POA); and (C) ex-vivo models on mouse and human acinar cells treated for 1 h with 100 nM CCK, […] or 500 μM TLCS. […] (B, C) Total cholesterol content was measured with cholesterol assay kit (Abcam, ab65390). […] Signficance was determined by 2-tailed student's t test. […]
as §5
Triglycerides (TAG) content was measured using Triglyceride Assay kit. […]

[4] = tested on: lysosomal acid lipase (LAL); assay: Lysosomal acid lipase (LAL) activity in cerulein pancreatitis; type: in vivo, mouse; details: WT mice with CER-AP
Description: as §1, with “Each symbol in A, C-E, and H represents an individual mouse, or cell or mitochondria preparation (n=3-15 per condition). Each symbol in J, K, and M corresponds to 20-30 cells in a different field (n=10-20 fields from 3 cell preparations per condition). Values are mean±SEM. *P<0.05, **P<0.01, ***P<0.001 vs. the same parameter in control/untreated pancreas, acinar cells or isolated mitochondria.” left out, “Scale bars: 10 μm.” left out
Activities of cathepsin (Cat) B and L, caspase-3, trypsin, and lysosomal acid lipase (LAL) were measured in pancreatic tissue or cell homogenates and subcellular fractions with fluorogenic assays using substrates specific for CatB (Z-Arg-Arg-AMC), CatL (Z-Phe-Arg-AMC), caspase-3-like ([…]), trypsin (Boc-Gln-Ala-Arg-AMC), as previously described (1-4, 6, 7); and for LAL (4-methylumbelliferyl oleate), as in (17). […]

[5] = ex-vivo pancreatitis, 1 h, 100 nM CCK, 1 mM carbachol or 500 μM TLCS
[6] = supramaximal (100 nM) CCK-8 or carbachol, ex vivo AP

Compound: CCK: hormone cholecystokinin-8 (CCK) (DYMGWMDF; ends and bridges not checked; UniProt P06307 96-103, looked up)
- cholesterol overload, mouse acinar cells (mouse acinar cells; [5]): prominent
- total cholesterol in acinar cells, physiologic doses (mouse acinar cells; physiologic doses of CCK or carbachol): did not alter
- cholesterol content, mouse acinar cells, supramaximal stimulation (mouse acinar cells; [6]): increased
- cholesterol overload, human acinar cells (human acinar cells; [5]): prominent
- cholesterol content, human acinar cells, supramaximal stimulation (human acinar cells; [6]): increased
- free cholesterol in Rab7-positive LE/Ly (free cholesterol): accumulation
- plasma membrane free cholesterol (filipin colocalization with cadherin) (free cholesterol): markedly decreased

Compound: CSCC[C@H](NC(=O)[C@H](Cc1c[nH]c2ccccc12)NC(=O)CNC(=O)[C@@H](NC(=O)[C@H](Cc1ccc(OS(=O)(=O)O)cc1)NC(=O)[C@H](CC(=O)O)NC(=O)[C@H](CCC(N)=O)NC(=O)[C@@H]1CCC(=O)N1)[C@@H](C)O)C(=O)N[C@@H](CC(=O)O)C(=O)N[C@@H](Cc1ccccc1)C(N)=O [cerulein] (HELM PEPTIDE1{[Glp].Q.D.[O=C([C@H](Cc1ccc(OS(=O)(=O)O)cc1)N[*:1])[*:2]].T.G.W.M.D.F.[am]}$$$$V2.0)
- serum cholesterol levels [1]: did not change
- decrease in pancreatic GNPTAB α-subunit protein level (pancreas [2]; CER-AP): approximately 5 fold
- pancreatic LAMP2 levels (pancreas [2]; CER-AP): greatly decrease
- LDLR protein level (pancreas [2]; WT mice with CER-AP): increased
- SREBP2 protein level (pancreas [2]; WT mice with CER-AP): increased
- pancreatic NPC1 (pancreas [2]; WT mice with CER-AP): greatly decreased
- pancreatic mRNA expression for enzymes mediating cholesterol synthesis (pancreas [2]; WT mice with CER-AP): upregulation
- NPC2 levels (pancreas [2]; WT mice with CER-AP, listed as CER): no change; also recorded: not reduced
- mitochondrial cholesterol (pancreatic mitochondria): elevated
- pancreatic total cholesterol, AP models (pancreas [3]; Arg-AP, CER-AP or CDE-AP): increases
- pancreatic triglycerides in CER-AP (pancreas [3]; CER-AP): unchanged
- LAL activity [4]: increased
